# Laboratory results reported in paper PMC12024264, “Frog Skin Peptides Hylin-a1, AR-23, and RV-23: Promising Tools Against Carbapenem-Resistant Escherichia coli and Klebsiella pneumoniae Infections” (Antibiotics, 2025).
# Where two headings read alike, the source gives them in different places. Where no end group is shown, it is not given here.
# How the values were obtained:
# E. coli 1376 [1] = experiment: Antibiotic resistance profile of clinical isolate (Table S1); type: cell-based, Escherichia coli
# Procedure: (§1) Each strain was grown in Mueller Hinton Broth (MH Broth), and 5 × 10^5 CFU/mL was used to evaluate antibacterial activity. Clinical carbapenem-resistant K. pneumoniae and E. coli isolates were collected at the AOU of Virology and Microbiology of the University of Campania “Luigi Vanvitelli”. […]
# (§2) Table S1. Antibiotic resistance profile of K. pneumoniae and E. coli clinical isolates . MIC: Minimum Inhibitory
# (§3) Concentration was expressed in µg/mL; S: Sensible; I: Intermediate; R: Resistant.
# (§4) Antibiotic Resistance Profile of the Clinical Isolated Bacteria
# (§5) Antibiotics MIC (µg/mL) Interpretation […]
# E. coli 3140 [2] = experiment: as above; type: cell-based, Escherichia coli
# Procedure: as §1, §2, §3, §4, §5
# E. coli 716 [3] = experiment: as above; type: cell-based, Escherichia coli
# Procedure: as §1, §2, §3, §4, §5
# E. coli 2267 [4] = experiment: as above; type: cell-based, Escherichia coli; settings: Table S1, E. coli 2267
# Procedure: as §1, §2, §3, §4, §5
# E. coli 1441 [5] = experiment: as above; type: cell-based, Escherichia coli
# Procedure: as §1, §2, §3, §4, §5
# K. pneumoniae = experiment: Checkerboard assay with meropenem
# Source text: (§9) The synergistic effect of the selected peptides and meropenem was examined using a checkerboard assay. This method investigates the interaction between various antimicrobial agents and their combined effectiveness against bacteria. […] It determines whether the combined agents act synergistically, additively, or antagonistically to identify combinations that can reduce drug resistance.
# (§10) The rows contain two-fold dilutions of meropenem, while we reported a two-fold serial dilution of AMPs in the columns.
# (§11) The checkerboard test was carried out to assess the antibacterial activity of peptides in combination with antibiotics. The test was performed by preparing the bacterial inoculum in the same manner as the tests described above. Non-toxic concentrations of all peptides and serial dilutions of meropenem were inoculated in a 96-well plate either alone or in combination. After 20 h, the plate was read at OD600, and the Fractional Inhibitory Concentration (FICI) was calculated according to the following formula:FICI = FIC (A) + FIC (B)
# (§12) FIC (A) = MIC peptide in combination/MIC peptide alone
# (§13) FIC (B) = MIC meropenem in combination/MIC Meropenem alone
# E. coli = experiment: Checkerboard assay with meropenem
# Source text: as §9, §10, §11, §12, §13
# K. pneumoniae 1745 [6] = experiment: Antibiotic resistance profile of clinical isolate (Table S1); type: cell-based, Klebsiella pneumoniae; settings: Table S1, K. pneumoniae 1745
# Procedure: as §1, §2, §3, §4, §5
# K. pneumoniae 1746 [7] = experiment: as above; type: cell-based, Klebsiella pneumoniae
# Procedure: as §1, §2, §3, §4, §5
# K. pneumoniae 1711 [8] = experiment: as above; type: cell-based, Klebsiella pneumoniae; settings: Table S1, K. pneumoniae 1711
# Procedure: as §1, §2, §3, §4, §5
# Serum stability assay = type: in vitro ADME, bovine; settings: 10% FBS
# Procedure: The susceptibility of Hylin-a1, AR-23, and RV-23 to proteolytic degradation in serum was evaluated, following the protocol reported in Section 4.3.
# Figure 6 AMP stability in serum. Stability profiles of Hylin-a1 (red line), AR-23 (gray line), and RV-23 (black line) are reported. All stability tests were performed at least in triplicate. LC-MS analyses were performed using an Agilent 1260 Infinity II LC/MSD system (Milan, Italy). The percentages of intact peptides after different time points of incubation in serum were determined by integrating RP-HPLC peaks from the chromatograms recorded at a wavelength of 210 nm. The test was performed in triplicate, and the data are presented as mean values, with error bars representing standard deviations.
# Peptides were mixed with 10% FBS at a final concentration of 0.2 mg/mL and incubated in a water bath at 37 °C. […] Then, the mixture was diluted with 0.1% TFA in H2O (1:1). Samples were characterized using LC-MS on a C18 Aeris Peptide column (100 × 2.1 mm), applying a linear gradient from 5 to 80% solvent B (0.1% TFA in CH3CN) over solvent A (0.1% TFA in water) in 15 min at a flow rate of 0.2 mL/min. All stability tests were performed at least in triplicate. LC-MS analyses were performed using an Agilent 1260 Infinity II LC/MSD system (Milan, Italy).
# HaCaT cells = experiment: MTT cytotoxicity assay on HaCaT keratinocytes; type: cell-based, human
# Procedure: To evaluate their safety profile, cytotoxicity assays were performed on HaCaT keratinocytes. Cells were exposed for 20 h to peptides at doses ranging from 0.39 to 100 μM.
# Figure 1 Dose–response curves for the AMPs against HaCaT cell line and CC50 (reported in μM), HillSlope, and R^2 values were obtained by the fitting of the curves. The viability effect of Hylin-a1, AR-23, and RV-23 was analyzed on HaCaT cells. The cell monolayer was treated with serial dilutions of peptides for 20 h. Untreated cells were used as a positive control, while dimethyl sulfoxide (DMSO) was used as a negative control. HillSlope: The measure of the steepness of the dose–response curve. […] R^2 (coefficient of determination) indicates how well the model fits the data. Ranges from 0 to 1, with 1 representing a perfect fit.
# The cytotoxic effect of peptides was examined using 3-(4,5 dimethylthiazol-2-yl)-2,5-diphenyltetrazolium bromide (MTT), as previously described. Cell viability, expressed as a percentage, was calculated in relation to the viability of untreated cells (+). DMSO was used as negative control (−). The human keratinocyte cell line HaCaT (Cell Lines Service, CLS-, Eppelheim, Germany) was used as a cellular model to evaluate the peptides’ cytotoxicity. HaCaT cells were grown in Dulbecco’s Modified Eagle Medium (DMEM) with 4.5 g/L of glucose (Microtech, Naples, Italy) supplemented with an antibiotic solution 100× (Himedia, Naples, Italy) and 10% Fetal Bovine Serum (FBS, Microtech).
# K. pneumoniae ATCC 10031 = test system: K. pneumoniae ATCC 10031
# Procedure: (§6) The three peptides were tested for their antibacterial activity. […] As described in the Materials and Methods section, the antibacterial effect of peptides was investigated using a microdilution assay. Each concentration of AMPs was inoculated with bacteria in 96-well plates and incubated at 37 °C for 20 h. After that, MIC values were determined by analyzing absorbance and expressed as a percentage of inhibition. MBC was assessed by observing the colonies’ growth on agar plates, as described elsewhere.
# (§7) Each strain was grown in Mueller Hinton Broth (MH Broth), and 5 × 10^5 CFU/mL was used to evaluate antibacterial activity. Clinical carbapenem-resistant K. pneumoniae and E. coli isolates were collected at the AOU of Virology and Microbiology of the University of Campania “Luigi Vanvitelli”.
# (§8) The antimicrobial activity of Hylin-a1, AR-23, and RV-23 was investigated using a microdilution assay as reported by the National Committee on Clinical Laboratory Standards (NCCLS) guidelines against a broad spectrum of Gram-negative bacteria. […] In 96-well, the standardized bacterial inoculum (5 × 10^5 colony forming units, CFU/mL) was inoculated together with AMPs and incubated at 37 °C for 20 h. After the time of incubation, optical density (OD) was measured at TECAN, and data were expressed as a percentage of inhibition. In addition to assessing the MIC values, the bactericidal effect was also studied as reported elsewhere.
# E. coli ATCC 25992 = settings: microdilution (NCCLS), MH broth, 5 × 10^5 CFU/mL, 37 °C, 20 h, absorbance; 50 to 1.56 μM
# Procedure: as §6, §7, §8
# E. coli 1376 [9] = settings: carbapenemase NDM (class B), rectal swab, N/D = no antibacterial activity detected
# Procedure: as §7, §8
# K. pneumoniae 1745 [10] = settings: carbapenemase KPC (class A), ulcer; microdilution, 37 °C, 20 h; N/D = no antibacterial activity detected
# Procedure: as §7, §8
# E. coli 3140 [11] = settings: carbapenemase OXA-48 (class D), urine; microdilution, 37 °C, 20 h; N/D = no antibacterial activity detected
# Procedure: as §7, §8
# E. coli 716 [12] = settings: carbapenemases IMP1, VIM, NDM (class B), urine, N/D = no antibacterial activity detected
# Procedure: as §7, §8
# E. coli 2267 [13] = settings: carbapenemase NDM (class B), rectal swab; microdilution, 37 °C, 20 h; N/D = no antibacterial activity detected
# Procedure: as §7, §8
# K. pneumoniae 1746 [14] = settings: carbapenemase VIM (class B), rectal swab; microdilution, 37 °C, 20 h; N/D = no antibacterial activity detected
# Procedure: as §7, §8
# K. pneumoniae 1711 [15] = settings: carbapenemase KPC (class A), rectal swab; microdilution, 37 °C, 20 h; N/D = no antibacterial activity detected
# Procedure: as §7, §8
# E. coli 1441 [16] = settings: carbapenemase KPC (class A), rectal swab; microdilution, 37 °C, 20 h; N/D = no antibacterial activity detected
# Procedure: as §7, §8
# K. pneumoniae 311 = experiment: Antibiotic resistance profile of clinical isolate (Table S1); type: cell-based, Klebsiella pneumoniae; settings: Table S1, K. pneumoniae 311
# Procedure: as §1, §2, §3, §4, §5
# [17] = Klebsiella pneumoniae, read-out: MIC
compound,measurement,setting,value
C[C@@H](O)[C@H]1C(=O)N2C(C(=O)O)=C(S[C@@H]3CN[C@H](C(=O)N(C)C)C3)[C@H](C)[C@H]12 [Meropenem],MIC,"E. coli 1376 [1]; Escherichia coli, 1376",> 16 µg/mL
same,Interpretation,"E. coli 1376 [1]; Table S1, E. coli 1376",R
same,MIC,"E. coli 3140 [2]; Escherichia coli, 3140",0.5 µg/mL
same,Interpretation,"E. coli 3140 [2]; Table S1, E. coli 3140",S
same,MIC,"E. coli 716 [3]; Escherichia coli, 716",> 16 µg/mL
same,Interpretation,"E. coli 716 [3]; Table S1, E. coli 716",R
same,MIC,"E. coli 2267 [4]; Escherichia coli, read-out: MIC",> 16 µg/mL
same,Interpretation,E. coli 2267 [4],R
same,MIC,"E. coli 1441 [5]; Escherichia coli, 1441",1 µg/mL
same,Interpretation,"E. coli 1441 [5]; Table S1, E. coli 1441",S
same,MIC,"K. pneumoniae; Klebsiella pneumoniae, read-out: MIC of meropenem",5 µg/mL
same,MIC of antibiotic (meropenem) in combination,K. pneumoniae; combined with AR23 at 3.125 μM,0.625 µg/mL
same,MIC of antibiotic (meropenem) in combination,K. pneumoniae; combined with RV-23 at 3.125 μM,0.625 µg/mL
same,MIC,"E. coli; Escherichia coli, read-out: MIC of meropenem",5 µg/mL
same,MIC of antibiotic (meropenem) in combination,E. coli; combined with AR23 at 6.25 μM,1.25 µg/mL
same,MIC of antibiotic (meropenem) in combination,E. coli; combined with Hylin-a1 at 3.125 μM,2.5 µg/mL
same,MIC of antibiotic (meropenem) in combination,E. coli; combined with RV-23 at 6.25 μM,2.5 µg/mL
same,MIC,K. pneumoniae 1745 [6]; [17],> 16 µg/mL
same,Interpretation,K. pneumoniae 1745 [6],R
same,MIC,"K. pneumoniae 1746 [7]; Klebsiella pneumoniae, 1746",1 µg/mL
same,Interpretation,"K. pneumoniae 1746 [7]; Table S1, K. pneumoniae 1746",S
same,MIC,K. pneumoniae 1711 [8]; [17],> 16 µg/mL
same,Interpretation,K. pneumoniae 1711 [8],R
AIGSILGALAKGLPTLISWIKNR-NH2 [AR-23],"percentage of intact fragments, almost constant up to 24 h","Serum stability assay; 0.2 mg/mL, 37 °C, RP-HPLC peaks at 210 nm, mean of triplicate, after the first 2 h up to 24 h",around 30%
same,half-life,"Serum stability assay; serum, peptide 0.2 mg/mL, 37 °C water bath, ethanol precipitation, LC-MS, RP-HPLC peak integration at 210 nm, at least triplicate",< 120 min
same,50% cytotoxic concentration (CC50),"HaCaT cells; HaCaT keratinocytes, 20 h exposure, 0.39 to 100 μM",50 µM
same,CC50 obtained by the fitting of the curves,"HaCaT cells; HaCaT, 20 h, Figure 1",52.25 µM
same,MBC,"K. pneumoniae ATCC 10031; colonies' growth on agar plates after microdilution, N/D = not detected antibacterial activity",25 µM
same,MIC,"K. pneumoniae ATCC 10031; microdilution (NCCLS), MH broth, 5 × 10^5 CFU/mL, 37 °C, 20 h, absorbance, 50 to 1.56 μM",6.25 µM
same,MIC,E. coli ATCC 25992,25 µM
same,MBC,E. coli 1376 [9],50 µM
same,MIC,"E. coli 1376 [9]; microdilution, 37 °C, 20 h",25 µM
same,MIC,K. pneumoniae 1745 [10],50 µM
same,MIC,E. coli 3140 [11],50 µM
same,MBC,E. coli 716 [12],50 µM
same,MIC,"E. coli 716 [12]; microdilution, 37 °C, 20 h",25 µM
same,MIC,E. coli 2267 [13],25 µM
same,MIC,K. pneumoniae 1746 [14],25 µM
same,MIC,K. pneumoniae 1711 [15],50 µM
same,MIC,E. coli 1441 [16],25 µM
Trimethoprim/sulfamethoxazole,Interpretation,"E. coli 1376 [1]; Table S1, E. coli 1376",R
same,MIC,"E. coli 1376 [1]; Table S1, E. coli 1376",> 4/76
same,Interpretation,"E. coli 3140 [2]; Table S1, E. coli 3140",S
same,MIC,"E. coli 3140 [2]; Table S1, E. coli 3140",≤ 1/19
same,Interpretation,"E. coli 716 [3]; Table S1, E. coli 716",R
same,MIC,"E. coli 716 [3]; Table S1, E. coli 716",> 4/76
same,Interpretation,E. coli 2267 [4],R
same,MIC,E. coli 2267 [4],> 4/76
same,Interpretation,"E. coli 1441 [5]; Table S1, E. coli 1441",S
same,MIC,"E. coli 1441 [5]; Table S1, E. coli 1441",≤ 1/19
same,Interpretation,K. pneumoniae 1745 [6],R
same,MIC,K. pneumoniae 1745 [6],> 4/76
same,Interpretation,"K. pneumoniae 1746 [7]; Table S1, K. pneumoniae 1746",S
same,MIC,"K. pneumoniae 1746 [7]; Table S1, K. pneumoniae 1746",≤ 1/19
same,Interpretation,K. pneumoniae 1711 [8],R
same,MIC,K. pneumoniae 1711 [8],> 4/76
same,Interpretation,K. pneumoniae 311,S
same,MIC,K. pneumoniae 311,2/38
